The source of these data is publication PMC3466204 (PLoS ONE, 2012).

Assay [1] concerns ST 528 (Methicillin resistant S. aureus). Briefly: Broth MIC, Gram positive. The assay is classed as cell-based. Conditions: broth microtitre, BSA pre-treated plates, 10^5 cfu ml^−1, 2-fold dilutions from 2.5 µM, 16 h 37°C, purified peptide, mean of triplicate assays. The procedure:
(§1) Minimum inhibitory concentration determinations for Gram positive organisms were carried out in triplicate in microtitre plates (Sarstedt). 96 well microtitre plates were pre-treated with bovine serum albumin (BSA) prior to addition of the peptides. Briefly, to each well of the microtitre plate 200 µL of phosphate buffered saline (PBS) containing 1% (w/v) bovine serum albumin (PBS/BSA) was added and incubated at 37°C for 30 min. The wells were washed with 200 µL PBS and allowed to dry. Target strains were grown overnight in the appropriate conditions and medium, subcultured into fresh broth and allowed to grow to an OD600 of ∼0.5, diluted to a final concentration of 10^5 cfu ml^−1 in a volume of 0.2 ml. Wild type nisin and nisin mutant peptides were adjusted to a 10 µM (S. mitis, B. cereus), 7.5 µM (L. monocytogenes), 5 µM (hVISA) 2.5 µM (MRSA, E. durans), or 500 nM (L. lactis strains) starting concentration and 2-fold serial dilutions of each peptide were added to the target strain.

A further assay relates to L. lactis HP. Briefly: Broth MIC, Gram positive. Conditions: broth microtitre, BSA pre-treated plates, 10^5 cfu ml^−1, 2-fold dilutions from 500 nM, 16 h, purified peptide, mean of triplicate assays. Type of assay: cell-based. The procedure: as §1
In a further assay the test system is L. monocytogenes LO28. Briefly: Broth MIC, Gram positive. The assay is classed as cell-based. The conditions noted are these: broth microtitre, BSA pre-treated plates, 10^5 cfu ml^−1, 2-fold dilutions from 7.5 µM, 16 h 37°C, purified peptide, mean of triplicate assays. The procedure:
as §1

The next assay has as its system L. lactis MG1363. Briefly: Broth MIC, Gram positive. The assay is classed as cell-based. Conditions: broth microtitre, BSA pre-treated plates, 10^5 cfu ml^−1, 2-fold dilutions from 500 nM, 16 h, purified peptide, mean of triplicate assays. The procedure:
as §1

The subject of another assay is S. aureus RF122. Briefly: Broth MIC, Gram positive. The assay is classed as cell-based. The conditions noted are these: broth microtitre, BSA pre-treated plates, 10^5 cfu ml^−1, 2-fold dilutions, 16 h 37°C, purified peptide, mean of triplicate assays. The procedure: as §1
For another assay, the system named is L. monocytogenes 10403S. Briefly: Broth MIC, Gram positive. Type of assay: cell-based. The conditions noted are these: broth microtitre, BSA pre-treated plates, 10^5 cfu ml^−1, 2-fold dilutions from 7.5 µM, 16 h 37°C, purified peptide, mean of triplicate assays. As for the experimental part:
as §1

For assay [2], the system named is hVISA 32679 (heterogenous Vancomycin-intermediate S. aureus). Briefly: Broth MIC, Gram positive. The assay is classed as cell-based. Conditions: broth microtitre, BSA pre-treated plates, 10^5 cfu ml^−1, 2-fold dilutions from 5 µM, 16 h 37°C, purified peptide, mean of triplicate assays. As for the experimental part: as §1
In assay [3] the test system is ST 530 (Methicillin resistant S. aureus). Briefly: Broth MIC, Gram positive. The assay is classed as cell-based. Conditions: broth microtitre, BSA pre-treated plates, 10^5 cfu ml^−1, 2-fold dilutions from 2.5 µM, 16 h 37°C, purified peptide, mean of triplicate assays. The procedure:
as §1

Another assay concerns Lactococcus lactis HP. Briefly: Agarose-based assay of cell-free supernatants of S29X producing strains. Conditions: for Zone Diameter (mm): agarose (1%) GM17 assay, 10 µl cell-free supernatant of overnight producing culture in 4.6 mm wells, L. lactis HP, 30°C; for % difference (zone relative to wild type): agarose assay of supernatants against L. lactis HP, wild type serine = 100. The procedure:
(§2) Agarose-based deferred antagonism assays were carried out as follows: GM17/LB (0.03%) underlay was prepared with 10 mM sodium phosphate buffer (SPB) at pH 7.4 to which was added agarose (1% w/v agarose), autoclaved and cooled to 50°C. Bacteria grown to mid-logarithmic phase were harvested by centrifugation and washed with 10 mM SPB at pH 7.4. Bacteria were then added to 15 mls cooled underlay medium to reach a concentration of 2×10^7 colony-forming units (CFU)/mL. The inoculated medium was rapidly transferred into sterile Petri plates, allowed to solidify and dried. Wells (4.6 mm in diameter) were then made in the seeded plates. 10 µl volumes of cell-free supernatant from overnight nisin derivative producing cultures or resuspended purified peptides were then added to the wells and the plates incubated at 30°C (L. lactis) or 37°C (Gram positive strains) or RT (Gram negative strains) for 3 hours. Polymyxin B (Sigma Aldrich) was used at a concentration of 20 µg/ml. The plates were then overlaid with 15 mls of autoclaved double strength GM17 (L. lactis) or LB (Gram negatives) agarose (1% w/v agarose) overlay medium precooled to 50°C. The plates were then incubated overnight at the relevant temperature.

The test system of assay [4] is C. sakazakii DPC 6440. Briefly: Agarose gel diffusion assay, purified peptide. Type of assay: cell-based, Cronobacter sakazakii. Conditions: purified peptide 60 µM; for Zone of inhibition, agarose gel diffusion: C. sakazakii DPC 6440, mean of triplicate assays; for Zone as % wt: C. sakazakii DPC 6440, relative to nisin A. As for the experimental part: as §2
For a further assay, the system named is B. cereus DPC 6089. Briefly: Broth MIC, Gram positive. Type of assay: cell-based, Bacillus cereus. Conditions: broth microtitre, BSA pre-treated plates, 10^5 cfu ml^−1, 2-fold dilutions from 10 µM, 16 h 37°C, purified peptide, mean of triplicate assays. As for the experimental part: as §1
The next assay concerns B. cereus DPC 6088. Briefly: Broth MIC, Gram positive. Type of assay: cell-based, Bacillus cereus. Conditions: broth microtitre, BSA pre-treated plates, 10^5 cfu ml^−1, 2-fold dilutions from 10 µM, 16 h 37°C, purified peptide, mean of triplicate assays. The procedure:
as §1

Assay [5] deals with E. coli 0157-H7. Briefly: Broth MIC, Gram negative. Conditions: cells washed in 10 mM SPB pH 7.4, 2×10^5 CFU/mL, 2 h RT with peptide, then double strength LB, RT overnight, mean of triplicate assays. Type of assay: cell-based. As for the experimental part:
(§3) Minimum inhibitory concentration determinations for Gram negative strains were carried out in triplicate in 96 well microtitre plates. Briefly, bacteria (E. coli, C. sakazakii and Salmonella) grown to mid-logarithmic phase were harvested by centrifugation, washed with 10 mM SPB at pH 7.4, and diluted to 2×10^5 colony-forming units (CFU)/mL in SPB. Nisin and nisin derivative peptides were resuspended in sterile HPLC water and 50 µL aliquots were added to wells containing 50 µL of 2×10^5 CFU of bacteria. Plates were incubated at RT for two hours with agitation. Double strength Luria–Bertani (LB) broth (100 µL) was added and the plates were incubated at RT overnight, the MIC was taken as the lowest concentration at which growth was inhibited.

The test system of assay [6] is Salmonella enterica serovar Typhimurium UK1. Briefly: Broth MIC, Gram negative. Type of assay: cell-based. Conditions: cells washed in 10 mM SPB pH 7.4, 2×10^5 CFU/mL, 2 h RT with peptide, then double strength LB, RT overnight, mean of triplicate assays. As for the experimental part: as §3
In a further assay the test system is E. durans 5133. Briefly: Broth MIC, Gram positive. Type of assay: cell-based, Enterococcus durans. The conditions noted are these: broth microtitre, BSA pre-treated plates, 10^5 cfu ml^−1, 2-fold dilutions from 2.5 µM, 16 h 37°C, purified peptide, mean of triplicate assays. The procedure: as §1
For assay [7], the system named is E. coli 0157-H7. Briefly: Agarose gel diffusion assay, purified peptide. Type of assay: cell-based. The conditions noted are these: purified peptide 60 µM; for Zone of inhibition, agarose gel diffusion: E. coli 0157-H7, mean of triplicate assays; for Zone as % wt: E. coli 0157-H7, relative to nisin A. The procedure:
as §2

The subject of assay [8] is Salmonella enterica serovar Typhimurium UK1. Briefly: Agarose gel diffusion assay, purified peptide. The conditions noted are these: purified peptide 60 µM; for Zone of inhibition, agarose gel diffusion: Salmonella Typhimurium UK1, mean of triplicate assays; for Zone as % wt: Salmonella Typhimurium UK1, relative to nisin A. The assay is classed as cell-based. As for the experimental part:
as §2

A further assay concerns S. mitis UCC5000. Briefly: Broth MIC, Gram positive. The assay is classed as cell-based, Streptococcus mitis. Conditions: broth microtitre, BSA pre-treated plates, 10^5 cfu ml^−1, 2-fold dilutions from 10 µM, 16 h 37°C, purified peptide, mean of triplicate assays. As for the experimental part: as §1
The subject of assay [9] is C. sakazakii DPC 6440. Briefly: Broth MIC, Gram negative. Type of assay: cell-based, Cronobacter sakazakii. Conditions: cells washed in 10 mM SPB pH 7.4, 2×10^5 CFU/mL, 2 h RT with peptide, then double strength LB, RT overnight, mean of triplicate assays. The procedure:
as §3

“And” between values parts separate entries of the source, which are not always exact repeats. Equal values may be shown once. Ends that are not written are not given here.

With “S29E: bioengineered nisin A derivative, serine 29 replaced by glutamic acid (ITSISLCTPGCKTGALMGCNMKTATCHCEIHVSK; not fully specified (residues 2, 5, 33, bridges); cysteine pairing not given here; UniProt P13068 24-57, looked up, variant S29E)”, the minimal inhibitory concentration (MIC) in assay [1] is 0.52 mg/L; with L. lactis HP, 0.05 mg/L and 0.015 µM; in the assay with L. monocytogenes LO28 it was 6.28 mg/L and 1.875 µM; in the assay on L. lactis MG1363 it was 0.8 mg/L and 0.250 µM; with S. aureus RF122, 2 mg/L and 0.625 µM; in the assay on L. monocytogenes 10403S, 12.57 mg/L and 3.75 µM. In addition, the MIC in [2] is 4.19 mg/L and 1.25 µM; in [3], 0.52 mg/L; in the assay on B. cereus DPC 6089, 4.19 mg/L and 1.25 µM; in the assay on B. cereus DPC 6088, 4.19 mg/L and 1.25 µM; in the assay on E. coli 0157-H7 [5], 25.14 mg/L and 7.5 µM; in assay [6], 50.28 mg/L and 15 µM. Also, the MIC is 0.52 mg/L and 0.156 µM with E. durans 5133; 4.19 mg/L in the assay with S. mitis UCC5000; 12.57 mg/L and 3.75 µM in the assay with C. sakazakii DPC 6440 [9]. Also, in the assay on Lactococcus lactis HP, the “Zone Diameter (mm)” value was 18.6±0.3 mm. Further, the “% difference (zone relative to wild type)” value in the assay with Lactococcus lactis HP was 122 (0.0004) %. For the same substance, the “Zone of inhibition, agarose gel diffusion” value (“Zone of inhibition” below) in the assay with C. sakazakii DPC 6440 [4] was 7.98±0.29 mm; with E. coli 0157-H7 [7], 10.54±0.19 mm; in assay [8] it was 10.77±0.07 mm. The “Zone as % wt” value with C. sakazakii DPC 6440 [4] was 81 % wt; with E. coli 0157-H7 [7] it was 107 % wt; in [8] it was 109 % wt.
Consider “S29D: bioengineered nisin A derivative, serine 29 replaced by aspartic acid (ITSISLCTPGCKTGALMGCNMKTATCHCDIHVSK; thioether (positions not given here); not fully specified (residues 2, 5, 33, bridges); UniProt P13068 24-57, looked up, variant S29D)”, for which the MIC in [1] is 0.26 mg/L and 0.078 µM; in the assay on L. lactis HP it was 0.05 mg/L and 0.015 µM; in the assay with L. monocytogenes LO28, 12.57 mg/L and 3.75 µM; with L. lactis MG1363, 0.4 mg/L and 0.125 µM; in the assay with S. aureus RF122, 4.19 mg/L and 1.25 µM; in the assay with L. monocytogenes 10403S, 12.57 mg/L and 3.75 µM. Moreover, the MIC was 4.19 mg/L and 1.25 µM in assay [2]; 0.52 mg/L and 0.156 µM in assay [3]; 8.38 mg/L and 2.5 µM with B. cereus DPC 6089; 16.76 mg/L and 5.0 µM in the assay on B. cereus DPC 6088; > 100 mg/L and > 30 µM with E. coli 0157-H7 [5]; > 100 mg/L and > 30 µM in assay [6]. For the same substance, the minimal inhibitory concentration (MIC) in the assay with E. durans 5133 is 0.52 mg/L and 0.156 µM; with S. mitis UCC5000, 16.76 mg/L and 5.0 µM; with C. sakazakii DPC 6440 [9], 6.28 mg/L and 1.875 µM. Besides, in the assay on Lactococcus lactis HP, the “Zone Diameter (mm)” value is listed as 20.3±0.8 mm. Moreover, in the assay with Lactococcus lactis HP, the “% difference (zone relative to wild type)” value is listed as 133 (0.006) %. The “Zone of inhibition” value worked out at 10.10±0.19 mm in the assay with C. sakazakii DPC 6440 [4], 8.27±0.08 mm with E. coli 0157-H7 [7] and 8.22±0.16 mm in assay [8]. Also, the “Zone as % wt” value stood at 103 % wt in the assay on C. sakazakii DPC 6440 [4], 84 % wt in the assay on E. coli 0157-H7 [7] and 83 % wt in [8].
Take “M21K: M21K hinge derivative of nisin A, generated and purified for comparison (ITSISLCTPGCKTGALMGCNKKTATCHCSIHVSK; thioether (positions not given here); not fully specified (residues 2, 5, 33, bridges); UniProt P13068 24-57, looked up, variant M21K)”: the MIC in the assay on L. lactis HP was 0.2 mg/L and 0.062 µM; in the assay on S. aureus RF122, 1.04 mg/L and 0.312 µM; in the assay with B. cereus DPC 6089, 16.76 mg/L and 5.0 µM; in the assay with B. cereus DPC 6088, 16.76 mg/L and 5.0 µM; in the assay on E. coli 0157-H7 [5] it was 25.14 mg/L and 7.5 µM; in [6], 50.28 mg/L and 15 µM. Moreover, the MIC in the assay on E. durans 5133 was 0.52 mg/L and 0.156 µM; in the assay on S. mitis UCC5000 it was 8.38 mg/L and 2.5 µM; in the assay with C. sakazakii DPC 6440 [9] it was 6.28 mg/L and 1.875 µM. Besides, the entries for the “Zone of inhibition” value (with C. sakazakii DPC 6440 [4]; in the assay with E. coli 0157-H7 [7]; in assay [8]) were 10.51±0.10 mm, 10.80±0.01 mm and 10.75±0.12 mm, respectively. For the same substance, the “Zone as % wt” value is reported as 108 % wt in the assay on C. sakazakii DPC 6440 [4], 110 % wt with E. coli 0157-H7 [7] and 109 % wt in assay [8].

In general, MIC refers to the least concentration at which growth counts as inhibited.
